“And” between values parts separate entries of the source, which are not always exact repeats. Equal entries are not always repeated.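 All cell lines were grown in 96-well plates and treated with compound for 48 hours. Here, GI50 denotes the concentration required for 50% inhibition of growth. TGI: total growth inhibition.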
Experiments:
Experiment in all cases: NCI-60 cell line screen, 48 h
[1] = tested on: CAKI-1 renal
[2] = tested on: 786-0 renal
[3] = tested on: HOP-62 NSCLC
[4] = tested on: EKVX NSCLC
[5] = tested on: A498 renal
[6] = tested on: NCI-H226 lung
[7] = tested on: SF-539 CNS
[8] = tested on: NCI/ADR-RES ovarian
[9] = tested on: PC-3 prostate
[10] = tested on: OVCAR-4 ovarian

SMILES | GI50 [1] | TGI [1] | GI50 [2] | TGI [2] [µM] | GI50 [3] [µM] | TGI [3] | GI50 [4] [µM] | TGI [4] [µM] | GI50 [5] | TGI [5] | GI50 [6] [µM] | TGI [6] | GI50 [7] [µM] | TGI [7] | GI50 [8] | TGI [8] [µM] | GI50 [9] | TGI [9] | GI50 [10] [µM] | TGI [10] [µM]
O=c1oc2ccc(Cl)cc2c(=O)n1-c1cc(C(F)(F)F)cc(C(F)(F)F)c1 | 0.198 µM | 0.689 µM | 0.316 µM | 1.14 | 0.352 | 4.36 µM | 0.288 | 2.01 | 0.0531 µM | 0.311 µM | 0.305 | 2.21 µM | 0.317 | 1.74 µM | 0.264 µM | 1.37 | 0.302 µM | 4.49 µM | 0.292 | 29.2
COc1cc2nc(N3CCCC3)nc(Nc3ccccc3)c2cc1OC | 1.45 µM | 2.8 µM | 1.71 µM | 3.53 | 1.93 | 4.2 µM | 1.88 | 3.53 | 1.02 µM | 2.28 µM | 1.97 | 4.12 µM | 0.56 | 1.84 µM | 1.74 µM | 4.07 | 1.71 µM | 3.45 µM | 1.43 | 2.8
COc1ccc(-c2cc(-c3cn[nH]c3-c3ccccn3)ccn2)cc1 | > 25 µM | > 25 µM | > 25 µM | > 25 | > 25 | > 25 µM | > 25 | > 25 | > 25 µM | > 25 µM | > 25 | > 25 µM | > 25 | > 25 µM | > 25 µM | > 25 | > 25 µM | > 25 µM | > 25 | > 25
Cc1ccc(N=Nc2c(N)nn(-c3ccccc3)c2N)cc1 | 1.28 µM | > 23.1 µM | 0.755 µM | – | 2.49 | – | 3.72 | > 100 | 1.95 µM | > 28.7 µM | 59.4 | > 100 µM | 1.78 | > 22.8 µM | 0.412 µM | > 20.6 | 1.53 µM | 6.17 µM | > 40.7 | > 100
c1ccc(-c2nnc(Nc3ccc4c(c3)OCCO4)o2)c(NCc2ccncc2)c1 | 0.16 µM | > 100 µM | 0.0756 µM | > 100 | 0.0297 | 19.9 µM | 0.105 | > 100 | 0.0226 µM | 0.533 µM | 0.0264 | 0.106 µM | 0.0283 | 6.01 µM | 0.0162 µM | > 51.3 | 0.0301 µM | > 52.7 µM | 0.0818 | 21.9
O=C(O)CCCSc1nc2ccccc2s1 | – | > 100 µM | – | > 100 | – | > 100 µM | – | > 100 | – | > 100 µM | – | > 100 µM | – | > 100 µM | – | > 100 | – | > 100 µM | – | > 100
CO/N=C(/COc1c(-c2ccccc2)oc2ccccc2c1=O)c1ccc(OC)cc1 | > 100 µM | > 100 µM | > 100 µM | > 100 | > 100 | > 100 µM | > 100 | > 100 | 32.9 µM | > 100 µM | > 100 | > 100 µM | > 100 | > 100 µM | 76.2 µM | > 100 | > 100 µM | > 100 µM | 81.4 | > 100
CNNC(=N\S(=O)(=O)c1cc(C(=O)Nc2ccc(Cl)cc2)c(Cl)cc1SCc1ccccc1)/N=C/c1ccc([N+](=O)[O-])s1 | > 100 µM | > 100 µM | > 100 µM | > 100 | > 36 | > 100 µM | > 54.4 | > 100 | > 100 µM | > 100 µM | > 100 | > 100 µM | > 100 | > 100 µM | > 100 µM | > 100 | > 100 µM | > 100 µM | > 100 | > 100
COc1cccc(-n2ncc3c(N/N=C/c4ccc(S(C)(=O)=O)cc4)ncnc32)c1 | 4.81 µM | > 25 µM | 7.1 µM | 20.1 | 5.85 | 11.5 µM | > 22.9 | > 25 | 0.75 µM | 11.3 µM | 5.46 | 18.1 µM | 6.22 | > 25 µM | 9.1 µM | > 25 | 6.63 µM | > 20.9 µM | 13.1 | > 25
N#CSCc1c(Cl)cccc1Cl | 0.309 µM | > 20.2 µM | 5.57 µM | > 100 | 36.6 | > 100 µM | 3.94 | > 27.4 | 4.76 µM | 19.6 µM | 12.6 | > 100 µM | 3.45 | > 35.5 µM | 6.25 µM | > 100 | 8.73 µM | > 100 µM | 5.82 | > 100
CO[C@H]1C[C@@H]2CC[C@@H](C)[C@@](O)(O2)C(=O)C(=O)N2CCCC[C@H]2C(=O)O[C@H]([C@H](C)C[C@@H]2CC[C@@H](OP(C)(C)=O)[C@H](OC)C2)CC(=O)[C@H](C)/C=C(\C)[C@@H](O)[C@@H](OC)C(=O)[C@H](C)C[C@H](C)/C=C/C=C/C=C/1C | 10.8 µM | 25.9 µM | 8.92 µM | 22.7 | < 0.01 | 21.5 µM | < 0.01 | 18.5 | < 0.01 µM | 15.5 µM | 1.71 | 24.2 µM | < 0.0234 | 21.7 µM | 11 µM | 30.8 | < 0.0419 µM | 18.8 µM | 0.698 | 21.3
Nc1ccn(C2CC(O)C(CO)O2)c(=O)n1 (stereo not given) | > 5000 µM | > 5000 µM | > 5000 µM | > 5000 | > 5000 | > 5000 µM | > 5000 | > 5000 | > 5000 µM | > 5000 µM | > 5000 | > 5000 µM | > 5000 | > 5000 µM | > 5000 µM | > 5000 | > 5000 µM | > 5000 µM | > 5000 | > 5000
CCN(CC)CCCOc1cc(O)c2c(=O)cc(-c3ccccc3)oc2c1 | 13.9 µM | 38.8 µM | 11.3 µM | 24.1 | 5.29 | 19.4 µM | 13.2 | 26.4 | 10.2 µM | 22.4 µM | 13.6 | 29.7 µM | 6.65 | 19.5 µM | 13.3 µM | 27.1 | 10.8 µM | 25.3 µM | 5.94 | 25.1
COC(=O)c1ccc2c(c1)C(=O)c1c-2n(CCCN)c(=O)c2cc([N+](=O)[O-])ccc12 | < 0.01 µM | 1.36 µM | < 0.025 µM | 0.302 | < 0.0161 | 0.532 µM | 0.0811 | 0.857 | 0.116 µM | 1.44 µM | 0.102 | 1.67 µM | < 0.0196 | 0.21 µM | < 0.029 µM | 0.682 | < 0.0373 µM | 1.49 µM | – | 0.647
C/C1=C\C/C=C(\C)[C@H]2CC(CC/C(C)=C/CC1)[C@@](C)(CO)O2 | 44.9 µM | > 100 µM | > 100 µM | > 100 | 47.6 | > 100 µM | > 100 | > 100 | 54.1 µM | > 100 µM | > 100 | > 100 µM | > 100 | > 100 µM | > 100 µM | > 100 | 68.5 µM | > 100 µM | > 100 | > 100
C[C@H]1[C@H](C)CC[C@]2(C(=O)O)CC[C@]3(C)C(=CC[C@@H]4[C@@]5(C)CC[C@H](OC(=O)/C=C/c6ccc(O)cc6)C(C)(C)[C@@H]5CC[C@]43C)[C@H]12 | 3.13 µM | 16.3 µM | 3.57 µM | 9.53 | 3.63 | 7.03 µM | 3.88 | 18.6 | 21.1 µM | 37.9 µM | 15.1 | 29.2 µM | 3.8 | 10.2 µM | 10.9 µM | 26.1 | 6.94 µM | 24.6 µM | 9.42 | 38.1
Nc1nc(N)c2c(ccc3nccc32)[nH]1 | 2.82 µM | 12.8 µM | 7.01 µM | > 100 | 24.8 | > 100 µM | 2.22 | > 100 | 18.3 µM | 98.3 µM | 15.2 | > 88.9 µM | 3.26 | > 86.1 µM | 6.61 µM | > 100 | 1.63 µM | > 64.2 µM | 21.5 | 66.6
CCOC(=O)Cn1c(C)c(/C=N/NC(=O)c2cc3c(ccc4ccccc43)o2)c2ccccc21 | 0.575 µM | 2.37 µM | 0.491 µM | 2.24 | 0.554 | 4.79 µM | 0.662 | 42.5 | 0.134 µM | 1.04 µM | 0.801 | 5.39 µM | 0.316 | 1.28 µM | 0.259 µM | 3.08 | 0.332 µM | 6 µM | 1.36 | 9.27
CC1(C)CC(OCCCC[P+](c2ccccc2)(c2ccccc2)c2ccccc2)CC(C)(C)N1O | 1.19 µM | 4.01 µM | 0.738 µM | 2.23 | 0.44 | 2.1 µM | 0.256 | 4.37 | 0.644 µM | 3.89 µM | 0.472 | 10.6 µM | 0.327 | 10.2 µM | 5.56 µM | 21.5 | 0.205 µM | 4.04 µM | 0.32 | 4.32
Cc1cccc(NC(=O)CCl)c1 | – | > 10 µM | – | > 10 | – | > 10 µM | – | > 10 | – | > 10 µM | – | > 10 µM | – | > 10 µM | – | > 10 | – | > 10 µM | – | 8.18
CC1(O)CC2(O)C=CC3=C(C(=O)c4cccc(O)c4C3=O)C2(O)C(=O)C1O (stereo not given) | – | 2.24 µM | – | 3.84 | – | 36.4 µM | – | 5.99 | – | 14.9 µM | – | 17.6 µM | – | 10 µM | – | 20.2 | – | 17.1 µM | – | 2.86
CN(C)C(=O)c1cc2cnc(Nc3ccc(-c4csc5c(=O)cc(N6CCNCC6)oc45)cc3)nc2n1C1CCCC1 | 0.819 µM | 12.9 µM | 0.535 µM | 1.93 | 1.03 | 10.6 µM | 1.49 | 6.53 | 1.24 µM | 3.01 µM | 1.61 | 15.3 µM | 1.15 | 2.43 µM | 6.9 µM | 32.7 | 0.677 µM | 4.93 µM | 1.34 | 5.73
CN1CCN(Cc2ccc(NC(=O)c3nc4ccc5[nH]ncc5c4c4c3CCC4)cc2C(F)(F)F)CC1 | 0.815 µM | 1.56 µM | 0.859 µM | 1.56 | 0.867 | 1.71 µM | 1.26 | 4.84 | 6.62 µM | 13.4 µM | 2.23 | 11.3 µM | 0.879 | 1.58 µM | 0.931 µM | 2.14 | 0.926 µM | 2.12 µM | 0.911 | 1.98
CC[N+]1(C)CCC(O)(c2ccccc2)C(C(=O)c2ccccc2)C1 (stereo not given) | – | 7.51 µM | – | 18.8 | – | 48.2 µM | – | 43.4 | – | 30.7 µM | – | 38.8 µM | – | 31.3 µM | – | 83.6 | – | 33.9 µM | – | 25.9
CC1(C)CC(=O)c2c(ccc(C(=O)C[C@H](N)CO)c2N)O1 | 3.27 µM and 0.447 µM | 17.5 µM and 6.03 µM | > 17.5 µM and 5.1 µM | > 33.3 | 2.39 | 17.5 µM and > 33.3 µM | > 33.3 | > 33.3 | 2.86 µM and 6.73 µM | 17.5 µM and > 33.3 µM | – | 17.5 µM and 23.7 µM | – | 17.5 µM and 7.43 µM | > 17.5 µM and 7.51 µM | > 33.3 | 10.6 µM and 5.7 µM | 17.5 µM and > 33.3 µM | > 33.3 | > 33.3
O=C(O)c1ccc(NCc2nc3cc4ccccc4cc3[nH]2)cc1 | – | > 100 µM | – | > 100 | – | > 100 µM | – | > 100 | – | > 100 µM | – | > 100 µM | – | > 100 µM | – | > 100 | – | > 100 µM | – | > 100
